What follows are compounds tested on L929 cells (assay: TNF High Throughput Screen (TNF-α driven apoptosis assay)). Settings: Mus musculus, compound at 1 μM, human TNF-α + actinomycin D, read-out: TNFα % Inh. @ 1 μM.
Type: cell-based, mouse
Excerpt: Description of Table V: The results shown in Table V were obtained using the TNF-α assays performed as described in the protocols entitled “Method for TNF High Throughput Screen” and “Method for VCAM High Throughput Screen”, which are detailed below. These assays measure a cellular response to TNF-α stimulation, and the data published in the table are expressed as percentage inhibitions. Percentage inhibition is computed on a scale of 0 to 100% where 0 percent inhibition means the compound has no effect in the assay (the response is indistinguishable from TNF-α treatment alone), and 100% inhibition means that when the compound is present at the stated concentration, the response in the assay is the same as if TNF-α were not added. These two assays measure two different outcomes of TNF-α treatment, cell death and Vascular Cell Adhesion Molecule (VCAM) expression, and capture two of TNF-α's many biological effects. TNF-α induced apoptosis is a mechanism by which TNF-α production during immune/inflammatory responses can lead to direct cellular and tissue damage. TNF-α VCAM expression in endothelial cells is a response that allows leukocytes to leave the blood and enter a site of immune/inflammatory response. Both of these activities could lead to pathology in immune/inflammatory diseases. In the first column of the table, the percentage inhibition of the TNF-α driven apoptosis assay when the compounds are tested at 1 μM concentration is presented. The second column in the table lists the IC50 for the compound, a standard measure using a dilution series in the assay, and fitting a sigmoidal curve to the resulting dose-response curve. The IC50 is the concentration (derived analytically from the sigmoidal function) at which the compound would inhibit 50% of the response in the assay. The third and fourth column list the corresponding analysis for the TNF-α driven VCAM assay. In Table VI, data corresponding to the data in column 1 of Table V is shown, with human cells replacing the mouse cells used in the high throughput screen. […] As a consequence, the compounds will have use in treating more than one TNF-α mediated condition, and may be selected according to the manner in which the condition manifests. This corresponds to the use of these compounds in the treatment of human disease.
TNF High Throughput Screen.
• 1. Plate 4×10^4 L929 cells in 100 μl of complete EMEM in Costar 96 well plates in PM. • 2. The next day, pretreat with compound, inhibitor and control vehicle for 2 hours. • 3. After 2 hours pretreatment, add 10 μl 5 ng/ml human TNF-α and actinomycin D (40 μg/ml final concentration). • 4. Incubate overnight. • 5. In AM, remove supernatant. • 6. Wash on a plate washer (0.9% NaCl). • 7. Add 100 μl Crystal Violet 0.1% in 20% ETOH. • 8. Incubate at RT for 10 minutes. • 9. Wash on plate washer. • 10. Air dry wells at 37° C. • 11. Add 100 μl of methanol to each well. • 12. Shake plates on orbital shaker and read at 595 nm on plate reader. VCAM High Throughput Screen: Protocol: • 1. Plate Primary human umbilical vein endothelial cells at 1.8×10^4 cells/well in a 96-well tissue culture plate. • 2. Return Plates to 37° C. incubator for 48-72 hours before assay. • 3. On assay day, aspirate wells and add 1804, of endothelial growth cell medium (EGM) to each well. • 4. Add Compound to each well. • 5. Shake plates for 3 minutes. • 6. Incubate plate for 1 hour at 37° C. • 7. Add Tumor Necrosis Factor (TNF) at 1.0 ng/ml final concentration. • 8. Shake plates for 3 minutes. • 9. Incubate plate for 2 hours at 37° C. • 10. Remove plate from incubator and wash plate 3 times with phosphate buffered saline (PBS) using a plate washer. • 11. Add anti-VCAM antibody at 0.5 μg/ml final concentration. • 12. Incubate at 4° C. overnight. • 13. Wash 3 times with PBS on plate washer. • 14. Add goat anti-mouse horseradish peroxidase conjugate. • 15. Incubate at room temperature for one hour. • 16. Wash 3 times with PBS on plate washer. • 17. […]

Row | SMILES | inhibition at 1 µM [%]
1 | COc1ccc(Oc2cccc(C(C(=O)NCc3cc(OC)c(OC)c(OC)c3)N(C(=O)CC(c3ccccc3)c3ccccc3)c3ccccc3C(N)=O)c2)cc1 (stereo not drawn) [Compound 57] | 56
2 | O=C(NCC(c1ccccc1)c1ccccc1)C(c1ccccc1)N(CCc1c[nH]cn1)C(=O)c1cccc2c1-c1ccccc1C2 (stereo not drawn) [Compound 58] | 50
3 | N#Cc1cccc(C(C(=O)NCC(c2ccccc2)c2ccccc2)N(CCc2c[nH]cn2)C(=O)CCCCc2ccccc2)c1 (stereo not drawn) [Compound 60] | 50
4 | O=C(c1ccc(Cl)cc1)c1ccccc1C(=O)N(CCCn1ccnc1)C(C(=O)NCC(c1ccccc1)c1ccccc1)c1ccccc1 (stereo not drawn) [Compound 61] | 51
5 | O=C(c1ccccc1)c1ccccc1C(=O)N(CCc1c[nH]cn1)C(C(=O)NCC(c1ccccc1)c1ccccc1)C(c1ccccc1)c1ccccc1 (stereo not drawn) [Compound 62] | 59
6 | CN(C)CCCN(C(=O)c1ccccc1C(=O)c1ccccc1)C(C(=O)NC(C)(C)CC(C)(C)C)c1cccc(C#N)c1 (stereo not drawn) [Compound 63] | 55
7 | N#Cc1cccc(C(C(=O)NC(Cc2ccccc2)c2ccccc2)N(CCc2c[nH]cn2)C(=O)c2ccccc2C(=O)c2ccc(Cl)cc2)c1 (stereo not drawn) [Compound 64] | 63
8 | CCCCc1ccc(C(=O)N(CCc2c[nH]cn2)C(C(=O)NCCC(c2ccccc2)c2ccccc2)c2ccccc2)cc1 (stereo not drawn) [Compound 65] | 52
9 | COc1cccc(C(=O)N(CCc2c[nH]cn2)C(C(=O)NCCC(c2ccccc2)c2ccccc2)c2cccc(C#N)c2)c1OC (stereo not drawn) [Compound 66] | 51
10 | N#Cc1cccc(C(C(=O)NCCC(c2ccccc2)c2ccccc2)N(CCc2c[nH]cn2)C(=O)Cc2ccc3ccccc3c2)c1 (stereo not drawn) [Compound 67] | 52
11 | N#Cc1cccc(C(C(=O)NCCC(c2ccccc2)c2ccccc2)N(CCc2c[nH]cn2)C(=O)c2cccc3ccccc23)c1 (stereo not drawn) [Compound 68] | 57
12 | N#Cc1cccc(C(C(=O)NCCC(c2ccccc2)c2ccccc2)N(CCc2c[nH]cn2)C(=O)CCC2CCCCC2)c1 (stereo not drawn) [Compound 69] | 61
13 | COc1cccc(C(=O)N(CCc2c[nH]cn2)C(C(=O)NCCC(c2ccccc2)c2ccccc2)c2cccc(C#N)c2)c1 (stereo not drawn) [Compound 70] | 58
14 | COc1ccc(CCNC(=O)C(c2cccc(C#N)c2)N(CCc2c[nH]cn2)C(=O)c2cccn2C)cc1 (stereo not drawn) [Compound 71] | 57
15 | COc1ccc(CCNC(=O)C(c2cccc(C#N)c2)N(CCc2c[nH]cn2)C(=O)CCC2CCCC2)cc1 (stereo not drawn) [Compound 72] | 57
16 | COc1ccc(CCNC(=O)C(c2cccc(C#N)c2)N(CCc2c[nH]cn2)C(=O)CCC(C)=O)cc1 (stereo not drawn) [Compound 73] | 76
17 | COc1ccc(CCNC(=O)C(c2cccc(C#N)c2)N(CCc2c[nH]cn2)C(=O)c2cnc3ccccc3n2)cc1 (stereo not drawn) [Compound 74] | 55
18 | COc1ccc(CCNC(=O)C(c2cccc(C#N)c2)N(CCc2c[nH]cn2)C(=O)Cc2c(C)[nH]c3ccccc23)cc1 (stereo not drawn) [Compound 75] | 67
19 | COc1ccc(CCNC(=O)C(c2cccc(C#N)c2)N(CCc2c[nH]cn2)C(=O)CCCc2c[nH]c3ccccc23)cc1 (stereo not drawn) [Compound 76] | 56

Same assay, conditions: Mus musculus, human TNF-α + actinomycin D, read-out: TNFα IC50

Row | SMILES | IC50 [µM]
20 | N#Cc1ccc(C(C(=O)NCC(c2ccccc2)c2ccccc2)N(CCc2c[nH]cn2)C(=O)c2ccccc2C(=O)c2ccccc2)cc1 (stereo not drawn) [Compound 51] | 3.56
21 | O=C(c1ccccc1)c1ccccc1C(=O)N(CCc1c[nH]cn1)C(C(=O)NCC(c1ccccc1)c1ccccc1)c1ccc(-c2ccccc2)o1 (stereo not drawn) [Compound 52] | 3.49
22 | N#Cc1cccc(C(C(=O)NCC(c2ccccc2)c2ccccc2)N(CCc2c[nH]cn2)C(=O)c2ccccc2COc2ccccc2)c1 (stereo not drawn) [Compound 53] | 7.13
23 | N#Cc1cccc(C(C(=O)NCC(c2ccccc2)c2ccccc2)N(CCc2c[nH]cn2)C(=O)c2ccccc2C(=O)OCc2ccccc2)c1 (stereo not drawn) [Compound 55] | 7.64
24 | CN(C)CCN(C(=O)c1ccccc1C(=O)c1ccccc1)C(C(=O)NCC(c1ccccc1)c1ccccc1)c1ccccc1 (stereo not drawn) [Compound 56] | 6.63

From patent US9579325B2, “Modulators of TNF-α signaling” (Genzyme Corporation, priority 2000, dated 2017)
